Reference: patent US20230355594A1, “TOPICAL OPHTHALMOLOGICAL COMPOSITIONS” (ADS THERAPEUTICS LLC, priority 2020, published 2023)
Where “and” joins values, the source holds several entries; their conditions need not be identical. Identical values can stand only once. Like-named read-outs stand apart in the source and are kept apart here.

Conditions: for Atropine concentraion, Observed stable concentration after 10X serial dilution of the saturating concentration: successive 10X dilutions
[1] = 99.25% F6H8, 0.75% phenylethyl alcohol

For `CN1[C@@H]2CC[C@H]1C[C@@H](OC(=O)C(CO)c1ccccc1)C2` (stereo partly shown) [atropine], the “Atropine concentraion, Measured saturating concentraion by HPLC/UV” value (“Atropine concentraion … by HPLC/UV” for short) (98.00% F6H8, 2.00% isopropanol) was 0.153 w/w %, the “Atropine concentraion … by HPLC/UV” value (99.25% F6H8, 0.75% ethanol) was 0.108 w/w % and the “Atropine concentraion, Observed stable concentration after 10X serial dilution of the saturating concentration” value (99.25% F6H8, 0.75% ethanol) was 0.0108 w/w % and 0.00108 w/w % and 0.000108 w/w %. The “Atropine concentraion … by HPLC/UV” value (99.25% F6H8, 0.75% isopropanol) was 0.082 w/w %, the “Atropine concentraion, Observed stable concentration after 10X serial dilution of the saturating concentration” value (99.25% F6H8, 0.75% isopropanol) was 0.0082 w/w % and 0.00082 w/w % and 0.000082 w/w % and the “Atropine concentraion … by HPLC/UV” value [1] was 0.085 w/w %. For the same compound, the “Atropine concentraion, Observed stable concentration after 10X serial dilution of the saturating concentration” value [1] was 0.0085 w/w % and 0.00085 w/w % and 0.000085 w/w %, the “Atropine concentraion … by HPLC/UV” value (99.50% F6H8, 0.50% ethanol) was 0.089 w/w % and the “Atropine concentraion … by HPLC/UV” value (99.50% F6H8, 0.50% isopropanol) was 0.055 w/w %. For the same compound, the “Atropine concentraion … by HPLC/UV” value (99.50% F6H8, 0.50% phenylethyl alcohol) was 0.055 w/w %, the “Atropine concentraion … by HPLC/UV” value (99.75% F6H8, 0.25% ethanol) was 0.031 w/w % and the “Atropine concentraion … by HPLC/UV” value (99.75% F6H8, 0.25% isopropanol) was 0.046 w/w %. For the same compound, the “Atropine concentraion … by HPLC/UV” value (99.75% F6H8, 0.25% phenylethyl alcohol) was 0.043 w/w %.
